Active and inactive are the calls of the source. Cut-off read from the data, not from the text of the source, for most assays here: actives have a measured EC50 and inactives only a lower limit.
Key:
Streptokinase A = molecular target: T1, Streptokinase A (Streptococcus pyogenes serotype M1, UniProt P10520); experiment: viability-normalized secreted streptokinase activity reduction – plasminogen activation absorbance, OD405, dose response (AID 1914); assay type: functional, Streptococcus pyogenes M1 GAS;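 note: secreted streptokinase activity via plasminogen activation per viability signal from cell pellet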
T1 sequence (P10520 whole entry): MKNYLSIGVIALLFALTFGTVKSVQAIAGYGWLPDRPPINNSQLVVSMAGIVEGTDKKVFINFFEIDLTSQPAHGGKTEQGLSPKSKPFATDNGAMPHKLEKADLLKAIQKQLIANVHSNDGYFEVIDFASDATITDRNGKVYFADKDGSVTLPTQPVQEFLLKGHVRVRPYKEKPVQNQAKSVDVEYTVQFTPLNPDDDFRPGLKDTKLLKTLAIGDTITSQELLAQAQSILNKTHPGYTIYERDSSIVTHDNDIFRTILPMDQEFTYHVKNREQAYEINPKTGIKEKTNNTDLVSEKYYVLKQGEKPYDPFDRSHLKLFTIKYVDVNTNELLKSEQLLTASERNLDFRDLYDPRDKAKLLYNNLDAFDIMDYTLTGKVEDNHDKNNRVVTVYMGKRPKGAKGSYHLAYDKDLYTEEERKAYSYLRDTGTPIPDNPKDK

[1] = system: Streptococcus sp. 'group A'; experiment: Streptococcus pyogenes SK(-)GAS viability under kanamycin – luminescence, BacTiterGlo, confirmation, counter-screen for streptokinase expression inhibitor project, dose response (AID 1900); assay type: functional, organism-based
Streptococcus = experiment: GAS UMAA2166 growth inhibition – luminescence, BacTiterGlo, counter-screen for streptokinase expression inhibitor project, dose response (AID 1915); assay type: functional, organism-based;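 note: potency for reduction of bacterial viability or growth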
[2] = molecular target: T2, Heat shock factor protein 1 (Mus musculus, UniProt P38532); experiment: decrease of HSF1-responsive luciferase luminescence – cell-based, NIH3T3, dose retest, confirmation (AID 2382); assay type: functional;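 note: NIH3T3 fibroblasts with HSF1-driven luciferase reporter stressed by proteasome inhibitor MG132; luminescence from HSF1-driven luciferase expression after 8 hours of MG132 stress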
T2 sequence (P38532 whole entry): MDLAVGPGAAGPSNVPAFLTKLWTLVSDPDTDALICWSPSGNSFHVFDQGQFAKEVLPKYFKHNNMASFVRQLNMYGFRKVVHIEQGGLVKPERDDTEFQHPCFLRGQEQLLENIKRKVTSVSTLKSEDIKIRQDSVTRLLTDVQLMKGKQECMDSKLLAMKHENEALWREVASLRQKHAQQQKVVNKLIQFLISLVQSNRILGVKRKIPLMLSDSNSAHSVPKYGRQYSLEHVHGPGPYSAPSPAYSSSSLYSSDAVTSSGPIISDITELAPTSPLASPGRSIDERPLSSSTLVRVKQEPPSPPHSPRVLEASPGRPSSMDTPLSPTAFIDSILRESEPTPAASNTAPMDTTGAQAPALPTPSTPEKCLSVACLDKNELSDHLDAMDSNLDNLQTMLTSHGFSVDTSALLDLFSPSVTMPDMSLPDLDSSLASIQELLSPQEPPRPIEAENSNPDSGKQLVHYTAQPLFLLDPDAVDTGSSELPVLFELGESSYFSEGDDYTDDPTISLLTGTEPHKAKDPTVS

[3] = Trypanosoma cruzi growth suppression in host cells – NIH3T3 host cells, beta-gal luminescence, confirmation (AID 2044); assay type: functional, cell-based;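 note: intracellular parasites grown in NIH/3T3 mouse fibroblasts as host cells; luminescent beta-galactosidase reporter signal from transgenic T. cruzi replicating inside host cells; inhibitors lower the luminescence signal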
[4] = NIH3T3 cell viability loss – ATP luminescence, mouse fibroblasts, counter-screen, dose response (AID 2010); assay type: functional, cell-based;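 note: cells exposed to compound for about 90 hours before reading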
[5] = molecular target: T3, Rac GTPase-activating protein 1 (Homo sapiens, UniProt Q9H0H5); experiment: blockers of MgcRacGAP-driven Rac1 GTP hydrolysis – biochemical, ADP Hunter fluorescence, primary and confirmatory, confirmation (AID 624330); assay type: functional
T3 sequence (Q9H0H5 whole entry): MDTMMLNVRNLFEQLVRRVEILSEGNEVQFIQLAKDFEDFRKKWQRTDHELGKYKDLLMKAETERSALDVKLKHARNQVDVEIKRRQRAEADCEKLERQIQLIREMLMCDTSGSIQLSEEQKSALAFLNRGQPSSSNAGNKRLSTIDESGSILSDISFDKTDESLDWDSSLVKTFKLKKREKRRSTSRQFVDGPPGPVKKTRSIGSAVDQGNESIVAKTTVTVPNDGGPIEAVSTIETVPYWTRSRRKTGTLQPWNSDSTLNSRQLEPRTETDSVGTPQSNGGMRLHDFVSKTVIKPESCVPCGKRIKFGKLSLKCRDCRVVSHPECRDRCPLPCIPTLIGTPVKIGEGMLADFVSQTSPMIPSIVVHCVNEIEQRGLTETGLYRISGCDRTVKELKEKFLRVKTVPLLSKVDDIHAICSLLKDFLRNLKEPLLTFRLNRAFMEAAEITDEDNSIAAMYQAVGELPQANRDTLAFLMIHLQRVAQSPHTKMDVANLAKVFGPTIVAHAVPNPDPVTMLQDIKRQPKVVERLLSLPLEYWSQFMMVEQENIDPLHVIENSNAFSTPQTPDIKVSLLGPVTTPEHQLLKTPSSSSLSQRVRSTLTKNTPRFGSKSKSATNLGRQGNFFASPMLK

## COc1ccc(CCNC(=O)C(=O)Nc2ccc3nc4n(c(=O)c3c2)CCCCC4)cc1OC
Streptokinase A
  EC50: > 150 µM (not active)
[1]
  EC50: 11.3 µM (active)
Streptococcus
  EC50: > 150 µM (not active)

## CC(C)(C)c1ccc(OCC(=O)Nc2ccc(C(=O)Nc3ccccc3C(=O)O)cc2)cc1
[1]
  EC50: 4.27 µM (active)
Streptococcus
  EC50: 22.9 µM (active)

## Cc1cccc(C)c1NC(=O)N1C(C(=O)O)CSC1C(=O)O (configuration not stated)
[2]
  EC50: > 195 µM (not active)

## CCCn1c(NC(=O)c2ccccc2Br)nc2ccccc21
Streptokinase A
  EC50: > 150 µM (not active)
[1]
  EC50: 10.2 µM (active)
Streptococcus
  EC50: 30.5 µM (active)

## C=CCc1c(C)nc(-c2ccccc2)nc1N/N=C/c1ccncc1
[3]
  EC50: 0.941 µM (active)
[4]
  EC50: 6.59 µM (active)

## COc1cc2c(cc1NC(=S)Nc1cccc3ccccc13)oc1ccccc12
[5]
  IC50: 70.2 µM (active)

## O=C1c2ccccc2C2=Nc3ccccc3SC(c3cccc(F)c3)C12 (configuration not stated)
[3]
  EC50: 1.27 µM (active)
[4]
  EC50: > 60 µM (not active)

## CCn1c(COc2ccc(C)cc2)nnc1SCC(=O)Nc1ccc2c(c1)OCCO2
[2]
  EC50: > 195 µM (not active)

## O=C(c1cccc([N+](=O)[O-])c1)N1CCc2ccccc21
[2]
  EC50: > 195 µM (not active)

## CCCOc1ccc(Cc2c(Cl)nc(SC)nc2N(C)C)cc1
Streptokinase A
  EC50: 24.5 µM (active)
[1]
  EC50: 20.8 µM (active)
Streptococcus
  EC50: > 150 µM (not active)

## CC/C(=N\NS(=O)(=O)c1ccc(C)cc1)c1ccco1
[2]
  EC50: > 195 µM (not active)

## CCOC(=O)C1=C(N)OC2=C(C(=O)CC(C)(C)C2)C1c1ccccc1OCC#N (configuration not stated)
[2]
  EC50: > 195 µM (not active)

## CC1(C)S[C@@H]2[C@H](NC(=O)COc3ccccc3)C(=O)N2C1C(=O)OCC1CCCCC1 (some centres not stated)
Streptokinase A
  EC50: > 150 µM (not active)
[1]
  EC50: 9.95 µM (active)
Streptococcus
  EC50: 14 µM (active)

## COc1cccc(CCNCc2cccc(C(F)(F)F)c2)c1
[3]
  EC50: 0.97 µM (active)
[4]
  EC50: > 30 µM (not active)

## NNc1nc(Nc2ccccc2)nc(Nc2ccccc2)n1
Streptokinase A
  EC50: 23.5 µM (active)
[1]
  EC50: 6.74 µM (active)
Streptococcus
  EC50: > 150 µM (not active)

## CCCCCCCCN1[C@@H](CC(=O)OCC)c2ccc(C(F)(F)F)cc2S1(=O)=O
[3]
  EC50: 0.87 µM (active)
[4]
  EC50: 37.8 µM (active)

## CN1CCN(c2ccc([N+](=O)[O-])c(N3CCCCC3)c2)CC1
[3]
  EC50: 0.661 µM (active)
[4]
  EC50: > 30 µM (not active)

## CCN(CC)c1ccc(NC(=O)c2ccc3c(c2)OCO3)cc1
[5]
  IC50: 52.9 µM (active)

## COc1cc(NC(=O)c2ccco2)c(OC)cc1NC(=O)Nc1cccc(Cl)c1
[3]
  EC50: 1.79 µM (active)
[4]
  EC50: > 60 µM (not active)

## CSCc1nnc2n1-c1ccc(Cl)cc1C(c1ccccc1)=NC2
[2]
  EC50: > 195 µM (not active)

## CCCOc1ccc(CC(=O)N/N=C\c2ccc(F)cc2)cc1
[2]
  EC50: > 195 µM (not active)

## CCN(CC)CCCNC(=O)C1CCC(CNS(=O)(=O)c2ccc(Cl)cc2)CC1 (configuration not stated)
[2]
  EC50: > 195 µM (not active)

## Cc1ccc(S(=O)(=O)N2CCN(CC(=O)N/N=C\c3ccncc3)CC2)cc1
[2]
  EC50: > 195 µM (not active)

## CC(=O)N(C)C1=C(O)C(=O)c2ccccc2C1=O
[2]
  EC50: > 195 µM (not active)

## O=C1[C@H]2[C@@H](c3ccc(Cl)cc3)N3C(=O)N(c4cccc(F)c4)C(=O)[C@@]3(Cc3ccc(Cl)cc3)[C@H]2C(=O)N1C1CCCCC1
[3]
  EC50: 1.21 µM (active)
[4]
  EC50: > 30 µM (not active)

## CC/C(=N\c1ccc(N)cc1)C1=C(O)C(C(=O)OC)C(C)(C)CC1=O (configuration not stated)
[5]
  IC50: 6.8 µM (active)

## CCOc1ccc(C2Nc3ccc4ccccc4c3-c3c2c(=O)oc2ccccc32)cc1 (configuration not stated)
[3]
  EC50: 1.26 µM (active)
[4]
  EC50: > 60 µM (not active)

## COc1ccccc1C(O)(C(=O)N(NC(C)=O)c1ccccc1)c1ccccc1OC
[2]
  EC50: > 195 µM (not active)

## CCC(N=C(S)NCc1ccccc1)C(=O)O (configuration not stated)
[2]
  EC50: > 195 µM (not active)

## Cc1cccc(NC(S)=NC(NC(=O)OCc2ccccc2)C(Cl)(Cl)Cl)c1 (configuration not stated)
[3]
  EC50: 3.39 µM (active)
[4]
  EC50: > 60 µM (not active)

## CC12CCC(C(=O)N3CCN(C(c4ccccc4)c4ccccc4)CC3)(OC1=O)C2(C)C (configuration not stated)
[3]
  EC50: 1.56 µM (active)
[4]
  EC50: > 60 µM (inconclusive)

## CN1CCN(/C=N/C2=NN(c3cccc(C(F)(F)F)c3)CC2)CC1
[5]
  IC50: 33.9 µM (active)

## c1cc2c(cc1CN1CCN(C3CCCCCC3)CC1)OCO2
[5]
  IC50: 91.9 µM (active)

## CSc1ccccc1NC(=O)CNCCCN1CCOCC1
[5]
  IC50: 81.9 µM (active)

## CCCCNC(=O)C(c1ccc(OCC(=O)OC)c(C(=O)OC)c1)N(CCc1c[nH]c2ccccc12)C(=O)CCCCCN1C(=O)NC(c2ccc(-c3ccccc3)cc2)C(C(=O)OCc2ccccc2)=C1C (configuration not stated)
[2]
  EC50: > 195 µM (not active)

## CCN1CCN(CC(=O)Nc2nc3ccc(OC)cc3s2)CC1
[5]
  IC50: 74.3 µM (active)

## NC(=O)COC(=O)c1cc(O)nc2ccccc12
[2]
  EC50: > 195 µM (not active)

## O=C(/C=C/c1ccccc1)NC(=S)NNC(=O)c1ccco1
Streptokinase A
  EC50: > 150 µM (not active)
[1]
  EC50: 3.86 µM (active)
Streptococcus
  EC50: 11.2 µM (active)

## CCN1CCN(C(=O)N[C@@H](C(=O)N[C@@H]2C(=O)N3[C@@H]2SC(C)(C)[C@@H]3C(=O)O)c2ccccc2)C(=O)C1=O [PIPERACILLIN SODIUM]
[1]
  EC50: 0.361 µM (active)
Streptococcus
  EC50: 0.746 µM (active)

## CC(=O)Nc1cc(C(=O)N(C)Cc2ccco2)ccc1Sc1ccc(C)cc1
[2]
  EC50: > 195 µM (not active)

## Cc1onc(-c2c(Cl)cccc2Cl)c1C(=O)NC1C(=O)N2C1SC(C)(C)C2C(=O)O (configuration not stated)
[1]
  EC50: < 0.06 µM (active)
Streptococcus
  EC50: < 0.06 µM (active)

## CCc1cccc(CC)c1N=C(S)N1CCn2cccc2C1c1cccnc1 (configuration not stated)
[2]
  EC50: > 195 µM (not active)

## CC1CN(CCOCCOc2ccccc2-c2ccccc2)CC(C)O1 (configuration not stated)
[5]
  IC50: 87.5 µM (active)

## O=C(c1ccc(Cl)cc1)c1cnc(Nc2ccccc2Cl)s1
Streptokinase A
  EC50: > 150 µM (not active)
[1]
  EC50: 18.9 µM (active)
Streptococcus
  EC50: 30.5 µM (active)

## O=[N+]([O-])c1ccc(OCCN2CCNCC2)cc1
[3]
  EC50: 0.132 µM (active)
[4]
  EC50: > 60 µM (not active)

## COc1ccc(C2CC(c3cccs3)=NN2C(=O)c2ccc(Br)o2)cc1 (configuration not stated)
Streptokinase A
  EC50: > 150 µM (not active)
[1]
  EC50: 6.42 µM (active)
Streptococcus
  EC50: 27.4 µM (active)

## Cc1ccccc1OCCC(=O)Nc1ccc(S(=O)(=O)N(C)C2CCN(C)CC2)cc1
[3]
  EC50: 0.324 µM (active)
[4]
  EC50: > 30 µM (not active)

## CC(O/N=C\c1ccccc1O)C(=O)Nc1ccccc1C(=O)N1CCOCC1 (configuration not stated)
[2]
  EC50: > 195 µM (not active)

## COc1ccc(NC(=O)CNCc2cccs2)c(OC)c1
[5]
  IC50: 284 µM (active)

## Cc1nn(Cc2ccccc2Cl)c2sc(C(=O)Nc3ccccc3N3CCOCC3)cc12
Streptokinase A
  EC50: > 150 µM (not active)
[1]
  EC50: 45.4 µM (active)
Streptococcus
  EC50: > 150 µM (not active)

## O=C(CN1CCN(Cc2ccccc2)CC1)Nc1ccc(F)c(F)c1
[5]
  IC50: 73.9 µM (active)

## COc1ccc(N2CCN(C(=O)CCCN3C(=O)c4cccc5cccc(c45)C3=O)CC2)cc1
[3]
  EC50: 2.45 µM (active)
[4]
  EC50: > 60 µM (inconclusive)

## O=S(=O)(c1ccc2ccccc2c1)N1CCN(C2CCN(Cc3ccccc3)CC2)CC1
[5]
  IC50: 108 µM (active)

— ChEMBL document CHEMBL1201862, “PubChem BioAssay data set” (2004)
